The source made the active and inactive calls. The calls are words filed in the database; no cut-off is given here.
How the values were obtained:
Mus musculus [1] = experiment: Decrease in triglycerides level in human ApoB100/CETP transgenic mouse at 5 mg/kg, po after 6 weeks relative to control; format: functional; set-up: scale not given: the % may be the effect or the level left
[2] = biological target: T1, Peroxisome proliferator-activated receptor alpha (Mus musculus) (UniProt P23204); experiment: Agonist activity at mouse PPAR alpha expressed in HEK293 cells up to 30 uM by PPAR-GAL4 transactivation assay; format: functional, cell-based
T1 sequence (whole entry): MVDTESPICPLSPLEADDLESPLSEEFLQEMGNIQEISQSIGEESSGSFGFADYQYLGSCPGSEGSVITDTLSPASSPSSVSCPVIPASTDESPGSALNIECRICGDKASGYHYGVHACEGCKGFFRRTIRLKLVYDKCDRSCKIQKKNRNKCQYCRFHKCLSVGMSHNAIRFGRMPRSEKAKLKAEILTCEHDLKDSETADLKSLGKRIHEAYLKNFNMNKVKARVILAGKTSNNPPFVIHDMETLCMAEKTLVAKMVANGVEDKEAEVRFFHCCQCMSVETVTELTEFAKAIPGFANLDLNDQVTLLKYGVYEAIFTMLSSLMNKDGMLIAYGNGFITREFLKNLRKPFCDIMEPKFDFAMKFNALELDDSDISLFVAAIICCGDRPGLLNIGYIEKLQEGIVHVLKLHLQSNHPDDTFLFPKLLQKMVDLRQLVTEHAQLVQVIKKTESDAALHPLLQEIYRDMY

Mus musculus [3] = experiment: Increase in total cholesterol level in human ApoB100/CETP transgenic mouse at 20 mg/kg, po after 6 weeks relative to control; format: functional

Activity [2]: inactive
SMILES: O=C(O)COc1ccc(SCC=C(c2ccc(Br)cc2)c2ccc(Br)cc2)cc1Cl
Activity (Mus musculus [1]): 15%
Activity (Mus musculus [3]): 2%

Reference: ChEMBL document CHEMBL1142981, “Identification and synthesis of a novel selective partial PPARdelta agonist with full efficacy on lipid metabolism in vitro and in vivo” (J Med Chem, 2007)
